Laboratory results published in the NIST ThermoML archive (doi:10.1016/j.jct.2019.06.028).

Columns and labels:
[1] = xn = mol fraction of the nth substance listed; conditions: 101 kPa, Liquid, Vibrating tube method
[2] = 101 kPa, Liquid, Vibrating tube method

O [water] + CC(N)=O
[1], x2 = 0
Conditions	mass density [kg/m3]
278.15 K	999.96
323.15 K	988.03

CC(N)=O [ethanamide] + O
mass density [kg/m3], [1]
Conditions	278.15 K	288.15 K	298.15 K	308.15 K	323.15 K
x1 = 0.0045	1001.13	1000.13	997.95	994.84	988.72
x1 = 0.00696	1001.77	1000.68	998.45	995.28	989.09
x1 = 0.01255	1003.21	1001.93	999.55	996.27	989.94
x1 = 0.0221	1005.68	1004.08	1001.45	997.97	991.4
x1 = 0.03704	1009.47	1007.37	1004.39	1000.6	993.65
x1 = 0.04992	1012.61	1010.12	1006.82	1002.79	995.48
x1 = 0.0607	1015.11	1012.3	1008.75	1004.54	996.95
x1 = 0.07958	1019.24	1015.92	1011.95	1007.37	999.36
x1 = 0.09463	1022.32	1018.65	1014.35	1009.49	1001.16
x1 = 0.1128	1025.82	1021.71	1017.06	1011.89	1003.22
x1 = 0.1325	1029.34	1024.81	1019.79	1014.32	1005.31
x1 = 0.159	1033.54	1028.5	1023.07	1017.25	1007.78
x1 = 0.1991	1038.57	1032.99	1027.09	1020.83	1010.87
x1 = 0.2503	1043.75	1037.61	1031.18	1024.52	1013.96
x1 = 0.3039	–	1041.06	1034.29	1027.28	1016.34
x1 = 0.3456	–	1043.19	1036.18	1028.97	1017.76
x1 = 0.3875	–	–	1037.52	1030.2	1018.81

O [water]
[2]
Conditions	mass density [kg/m3]
278.15 K	999.96
323.15 K	988.03
